Experimental data published in patent US20030003485A1, “Methods for identifying antigens” (Ludwig Institute for Cancer Research, priority 2001, published 2003).
Ends that are not written are not given here.

Key:
Assay type in all cases: cell-based, mouse
CTL clone B-24 [1] = assay: Cytotoxicity assay (51Cr release) with CTL clone B-24; conditions: peptide pulsed P1.HTR target cells
Method: Cytotoxicity assay. Tumor cells were labeled by incubating 2×10^6 cells with 2 MBq of Na2^51CrO4, (New England Nuclear, Boston, Mass.) in 0.3 ml of medium for 90 min at 37° C. under 5% CO2 in air. The cells were washed and used as targets. […] In antibody blocking assays, serially diluted mAb (100 μl) was added to the mixture of effector cells and 10^4 labeled target cells (100 μl). After incubation for 3.5 hr at 37° C. under 5% CO2 in air, the supernatants were removed and their radioactivity was measured. The percentage of specific lysis was calculated by the following equation: (a-b)/(c-b)×100, where a is the radioactivity in the supernatant of target cells mixed with effector cells, b is the radioactivity in the supernatant of target cells incubated alone, and c is the radioactivity in the supernatant after lysis of target cells with 1% NP-40.

CTL clone B-24 [2] = assay: IFNγ ELISPOT assay with CTL clone B-24, peptide-pulsed stimulator cells and antibody blocking; conditions: 5,000 B-24 cells, 10,000 CMS8 stimulator cells pulsed with peptide, 96-well plates
Method: ELISPOT assay. […] CTL were incubated with stimulator cells on the coated membrane in 96- or 24-well plates for 18 hr at 37° C. under 5% CO2 in air. After culture, the membranes were thoroughly washed with distilled water and incubated with detection antibody for 90 min at 37° C. The IFNγ spots were developed by alkaline phosphatase-conjugated substrate kit (Bio-Rad, Hercules, Calif.) and counted with a dissecting microscope.

AT-1 CTL [3] = assay: IFNγ ELISA of AT-1 CTL stimulated with transfected or peptide-pulsed CMS8 cells; conditions: 1.0 μM synthetic peptide, 24 hr
Method: FIG. 8 depicts deletion mutants and introduction of point mutations in S35. IFNγ production in the supernatant secreted by AT-1 CTL against various constructs was determined by ELISA after culture for 24 hr with transfected CMS8 cells. PCR fragments with deletion were amplified from S35 cDNA and cloned into pCI-neo vector with EcoR I and Sal I sites. Point mutations at nt 699 (A to C) and nt 701 (G to A) in Exp. III were introduced using site-directed mutagenesis kits.
9-mer overlapping peptides were synthesized in the ORF of the third reading frame (“3RF”) of S35. 1×10^4 AT-1 cells were cultured with 1×10^4 CMS8 cells in the presence of 1.0 μM synthetic peptides for 24 hr and IFNγ in the supernatant was measured by ELISA. H-2D^d peptide motifs are shown as XGPXXXXXL (SEQ ID NO: 26) and XGAXXXXXL (SEQ ID NO:27). The synthetic peptides are MERTPIQLGAEAIFRLVLM (SEQ ID NO:15); MERTPIQLG (SEQ ID NO:16); ERTPIQLGA (SEQ ID NO:17); RTPIQLGAE (SEQ ID NO:18); TPIQLGAEA (SEQ ID NO:19); PIQLGAEAI (SEQ ID NO:20); IQLGAEAIF (SEQ ID NO:21); QLGAEAIFR (SEQ ID NO:22); LGAEAIFRL (SEQ ID NO:10); GAEAIFRLV (SEQ ID NO: 23); AEAIFRLVL (SEQ ID NO:24); and EAIFRLVLM (SEQ ID NO:25).
IFNγ ELISA. CTL were stimulated with targets for 18 hr. and IFNγ in the culture supernatant was assayed by the sandwich ELISA. […]

AT-1 CTL [4] = assay: Cytotoxicity assay (4 hr 51Cr release) with AT-1 CTL
Method: In FIG. 10A, CMS8 cells were ^51Cr labeled and pulsed with the peptide at different concentrations. Cytotoxicity was determined by 4 hr ^51Cr release assay. Effector to target cell ratio was 10. In FIG. 10B, 1×10^4 AT-1 CTL was stimulated with 1×10^4 CMS8 cells in the presence of the 1.0 μM peptide. IFNγ in the supernatant was measured by ELISA.
Cytotoxicity assay. Tumor cells were labeled by incubating 2×10^6 cells with 2 MBq of Na2^51CrO4 (New England Nuclear, Boston, Mass.) in 0.3 ml of medium for 90 min at 37° C. under a 5% CO2 in air. The cells were washed and used as targets. For peptide sensitization, labeled target cells were incubated with peptides at 37° C. for 30 min […]. In direct assays, 10^4 labeled target cells (100 μl) were incubated with effector cells (100 μl) cells. In antibody blocking assays, serially diluted mAb (100 μl) was added to the mixture of effector cells and 10^4 labeled target cells (100 μl). After incubation for 4 hr at 37° C. under a 5% CO2 in air, the supernatants were removed and their radioactivity was measured. The percentage of specific lysis was calculated by the following equation: (a−b)×100/(c−b), where a is the radioactivity in the supernatant of target cells mixed with effector cells, b is that in the supernatant of target cells incubated alone, and c is that in the supernatant after lysis of target cells with 1% NP-40.

AT-1 CTL [5] = assay: IFNγ ELISPOT assay with AT-1 CTL
From the text: Transfection. Recombinant plasmids were purified by Wizard Plus Series 9600™ DNA purification system (Promega, Co., Madison, Wis.) after amplification of bacteria and transfected into 1×10^5 or 1×10^4 cells 24- or 96-well plates, respectively, with plasmid pdl3027 containing the polyoma T antigen (Dailey and Basilico, J. Virol. 54:739-749, 1985) using lipofectamine (GIBCO BRL, Rockville, Md.). After culture for 24 hr, the transfected cells were collected and plated onto anti-IFNγ mAb-coated nitrocellulose membranes in culture plates. AT-1 CTL were then added for ELISPOT assay.
ELISPOT assay. Nitrocellulose disk membranes (14 mm diameter) and 96-well nitrocellulose membrane-based plates (Millipore S4510, Millipore Corp., Bedford, Mass.) were coated with anti-IFNγ mAb (R4-6A2) in 0.05 M bicarbonate buffer (pH 9.6) at 4° C. overnight. After washing, membranes were blocked with RPMI 1640 containing 10% FCS and 50 μM 2-mercaptoethanol for 60 min at 37° C. CTL were incubated with stimulator cells on the coated membrane in 24- or -96well plates for 18 hr at 37° C. under a 5% CO2 in air. […] The IFNγ spots were developed by alkaline phosphatase-conjugated anti-rabbit IgG antibody and substrate kit (Bio-Rad, Hercules, Calif.) and counted with a dissecting microscope.

IPGLPLSL [pRL1a, IPGLPLSL]
cytotoxicity of B-24 against peptide pulsed P1.HTR (CTL clone B-24 [1]): showed cytotoxicity

ISTQNHRALDLVA (listed as Mus musculus) [T2H]
number of IFNγ spots (CTL clone B-24 [2]): no spot

LGAEAIFRL (listed as Mus musculus)
stimulation of AT-1 for IFNγ production by peptide pulsed CMS8 cells (AT-1 CTL [3]): stimulation was observed | inhibition of Meth A (sv) lysis by AT-1 CTL by peptide pulsed P815 (AT-1 CTL [4]): completely inhibited | peptide concentration at which AT-1 CTL lysis of peptide pulsed CMS8 was detected (AT-1 CTL [4]; 4 hr 51Cr release, effector to target cell ratio 10): 20 to 30 nM

LSPFPFDL [p2Ca]
number of IFNγ spots (CTL clone B-24 [2]): no spot

B1: S35: cDNA clone, 937 bp long, from Meth A (sv) cDNA library, coding for antigen recognized by AT-1 (nucleic acid, listed as Mus musculus)
DNA: TTAAAAGGGAGATGGAAAGGACTCCAATCCAATTAGGGGCAGAAGCTATCTTTAGACTAGTACTAATGTGGTGAGTATCCTGCCTCACTTAACATCCTTAACCTAGCCTGTGCTTCAGGGAAAGGAAACAAAAGATAGATATATAAAGGCTATTTACTCTGCAAGCCAAACCAAAATTTTGGTACAGAAAATGACAAAGTTTCTTTTTCTCAATAGTAGGAATGTTCTGTGTTCCTAGCCAAAAATTTGTCATCAGTGTCCCTGTGGCTCCCATCTGTCTTTCCTGACCCCCATGATTACTTTTCACTGACAATATAAATCTTAAAAAGCTTTGAGACCAGTGTGCTGATCTAGTTTTTTAAGTTTTGGGTTTTGTTGTTGTGTTTTGGTTTTGGTGTTTTTACGTTTTATTGACTTACAAGCTTTCACTATGTATCCCAGACTGGCTTTGAACTCAGGACCTTCCTGCCTTAGTCTCCCAGGTGCTGAGATTGTGGGGCTGTGTCACTATATTACAACTAATATTTATCAGAAAAATGTTCCTTTTTTGGAAGAAAATGAAGAAAGTGCTGTTTTTGCACTTATCAATTGAGGGGCTGATTTTGATTCGCTCAAGAAAATAGCAGTTTTAACCTAGACATTTGCTGTGGGGACTTGGAACTTTAACTTGGGGTGTCGCTAACTCTACGCTTTCTTCTAGGTCACCATTACTCCCAGCTCCATGAGGAAGATATGTACATACTTTCGTAGAAAGACTCAAGATGACTTCTGCAGTCCTGAACACTCAACTGAATTATAGATGCTAATCTGAAGTTCATTGAACTTGGGTCTACAAAGATTTTTTAAAAAGGCTTTAAAATTCTGGTCTTTAAGAAAATGGTCATCTTTTCATTTTGGAAAAAGTCCTTCTACTCTTTAGCAGACCTAGTCAGGCCCC
stimulation of AT-1 by cells transfected with cDNA clone (AT-1 CTL [5]; CMS5a, CMS8 and CMS13, or H-2D^d-transfected L cells): stimulated | stimulation of AT-1 by cells transfected with cDNA clone (AT-1 CTL [5]; H-2L^d-transfected L cells): not
